Like-named read-outs stand apart in the source and are kept apart here.
System: 134 cancer cell lines
Assay: Cell viability assay (ATPlite, 72 hours), IC50 on cancer cell line panel

For `C[C@H]1Oc2cc(cnc2N)-c2c(nn(C)c2C#N)CN(C)C(=O)c2ccc(F)cc21` [lorlatinib], the IC50 (HEC-6, read-out: IC50 in cell proliferation assay) was > 31.6 µM, the IC50 (Homo sapiens, 769-P, read-out: IC50 in cell proliferation assay) was > 31.6 µM and the IC50 (Homo sapiens, 786-0, read-out: IC50 in cell proliferation assay) was > 31.6 µM. The IC50 (Homo sapiens, A 172, read-out: IC50 in cell proliferation assay) was > 31.6 µM, the IC50 (Homo sapiens, A204, read-out: IC50 in cell proliferation assay) was > 31.6 µM and the IC50 (Homo sapiens, A498, read-out: IC50 in cell proliferation assay) was > 31.6 µM. The IC50 (Homo sapiens, A549, read-out: IC50 in cell proliferation assay) was 2.3 µM, the IC50 (Homo sapiens, A704, read-out: IC50 in cell proliferation assay) was > 31.6 µM and the IC50 (Homo sapiens, A-375, read-out: IC50 in cell proliferation assay) was 18.8 µM. The IC50 (Homo sapiens, A-427, read-out: IC50 in cell proliferation assay) was 27.4 µM, the IC50 (Homo sapiens, ACHN, read-out: IC50 in cell proliferation assay) was > 31.6 µM and the IC50 (Homo sapiens, AN3-CA, read-out: IC50 in cell proliferation assay) was > 31.6 µM. The IC50 (Homo sapiens, ASPC1, read-out: IC50 in cell proliferation assay) was 28.2 µM, the IC50 (Homo sapiens, AU565, read-out: IC50 in cell proliferation assay) was > 31.6 µM and the IC50 (Homo sapiens, BT-20, read-out: IC50 in cell proliferation assay) was > 31.6 µM. For the same molecule, the IC50 (Homo sapiens, BT-474, read-out: IC50 in cell proliferation assay) was > 31.6 µM, the IC50 (Homo sapiens, BT-549, read-out: IC50 in cell proliferation assay) was > 31.6 µM and the IC50 (Homo sapiens, BXPC-3, read-out: IC50 in cell proliferation assay) was 0.049 µM. For the same molecule, the IC50 (Homo sapiens, C-33-A, read-out: IC50 in cell proliferation assay) was > 31.6 µM, the IC50 (Homo sapiens, CAL-27, read-out: IC50 in cell proliferation assay) was > 31.6 µM and the IC50 (Homo sapiens, CCF-STTG1, read-out: IC50 in cell proliferation assay) was > 31.6 µM. The IC50 (Homo sapiens, CCRF-CEM, read-out: IC50 in cell proliferation assay) was > 31.6 µM, the IC50 (Homo sapiens, COLO 205, read-out: IC50 in cell proliferation assay) was 11.9 µM and the IC50 (Homo sapiens, COLO-829, read-out: IC50 in cell proliferation assay) was > 31.6 µM. The IC50 (Homo sapiens, DLD-1, read-out: IC50 in cell proliferation assay) was > 31.6 µM, the IC50 (Homo sapiens, DU-145, read-out: IC50 in cell proliferation assay) was 25.9 µM and the IC50 (Homo sapiens, DU-4475, read-out: IC50 in cell proliferation assay) was 25.9 µM. For the same molecule, the IC50 (Homo sapiens, Daoy, read-out: IC50 in cell proliferation assay) was > 31.6 µM, the IC50 (Homo sapiens, DoTc2-4510, read-out: IC50 in cell proliferation assay) was 0.024 µM and the IC50 (Homo sapiens, EOL1, read-out: IC50 in cell proliferation assay) was 9.05 µM. The IC50 (Homo sapiens, FaDu, read-out: IC50 in cell proliferation assay) was > 31.6 µM, the IC50 (Homo sapiens, G-361, read-out: IC50 in cell proliferation assay) was > 31.6 µM and the IC50 (Homo sapiens, HCC827, read-out: IC50 in cell proliferation assay) was 17.1 µM. For the same molecule, the IC50 (Homo sapiens, HCC4006, read-out: IC50 in cell proliferation assay) was 17.8 µM, the IC50 (Homo sapiens, HCT-15, read-out: IC50 in cell proliferation assay) was > 31.6 µM and the IC50 (Homo sapiens, HCT-116, read-out: IC50 in cell proliferation assay) was 23.8 µM. The IC50 (Homo sapiens, HEC-1, read-out: IC50 in cell proliferation assay) was 9.24 µM, the IC50 (Homo sapiens, HEC-1B, read-out: IC50 in cell proliferation assay) was > 31.6 µM and the IC50 (Homo sapiens, HL-60, read-out: IC50 in cell proliferation assay) was 28.1 µM. For the same molecule, the IC50 (Homo sapiens, HT, read-out: IC50 in cell proliferation assay) was > 31.6 µM, the IC50 (Homo sapiens, HT-1080, read-out: IC50 in cell proliferation assay) was > 31.6 µM and the IC50 (Homo sapiens, Hs746T, read-out: IC50 in cell proliferation assay) was 9.43 µM. For the same molecule, the IC50 (Homo sapiens, Hs-578T, read-out: IC50 in cell proliferation assay) was > 31.6 µM, the IC50 (Homo sapiens, HuTu80, read-out: IC50 in cell proliferation assay) was 7.5 µM and the IC50 (Homo sapiens, J82, read-out: IC50 in cell proliferation assay) was > 31.6 µM. For the same molecule, the IC50 (Homo sapiens, Jurkat E6.1, read-out: IC50 in cell proliferation assay) was > 31.6 µM, the IC50 (Homo sapiens, K562, read-out: IC50 in cell proliferation assay) was 9.61 µM and the IC50 (Homo sapiens, KATO III, read-out: IC50 in cell proliferation assay) was > 31.6 µM. For the same molecule, the IC50 (Homo sapiens, KG-1, read-out: IC50 in cell proliferation assay) was 9.21 µM, the IC50 (Homo sapiens, KLE, read-out: IC50 in cell proliferation assay) was > 31.6 µM and the IC50 (Homo sapiens, KMS-11, read-out: IC50 in cell proliferation assay) was 17.7 µM. The IC50 (Homo sapiens, KU812, read-out: IC50 in cell proliferation assay) was > 31.6 µM, the IC50 (Homo sapiens, Kasumi 1, read-out: IC50 in cell proliferation assay) was > 31.6 µM and the IC50 (Homo sapiens, LC-2-ad, read-out: IC50 in cell proliferation assay) was 20.4 µM. The IC50 (Homo sapiens, LNCaP-Clone-FGC, read-out: IC50 in cell proliferation assay) was > 31.6 µM, the IC50 (Homo sapiens, LS174T, read-out: IC50 in cell proliferation assay) was 14.2 µM and the IC50 (Homo sapiens, LS-411N, read-out: IC50 in cell proliferation assay) was 23.6 µM. The IC50 (Homo sapiens, LoVo, read-out: IC50 in cell proliferation assay) was > 31.6 µM, the IC50 (Homo sapiens, MCF7, read-out: IC50 in cell proliferation assay) was 17 µM and the IC50 (Homo sapiens, MDA-MB-231, read-out: IC50 in cell proliferation assay) was > 31.6 µM. The IC50 (Homo sapiens, MDA-MB-453, read-out: IC50 in cell proliferation assay) was > 31.6 µM and the IC50 (Homo sapiens, MDA-MB-468, read-out: IC50 in cell proliferation assay) was > 31.6 µM.
